Source: ChEMBL document CHEMBL5465560, “Selectivity Literature for EUbOPEN Chemogenomic Library” (2024)

Experiments:
[1] = system: Tyrosine-protein kinase ABL1 (Homo sapiens), P00519 [F317L]; test: Selectivity interaction (KinomeScan (DiscoverX)) EUB0000666a ABL1; settings: at 10 µM
[2] = target: T1, Histone-lysine N-methyltransferase SUV39H1 (Homo sapiens) (UniProt O43463); settings: at 10 µM
T1 sequence (whole entry): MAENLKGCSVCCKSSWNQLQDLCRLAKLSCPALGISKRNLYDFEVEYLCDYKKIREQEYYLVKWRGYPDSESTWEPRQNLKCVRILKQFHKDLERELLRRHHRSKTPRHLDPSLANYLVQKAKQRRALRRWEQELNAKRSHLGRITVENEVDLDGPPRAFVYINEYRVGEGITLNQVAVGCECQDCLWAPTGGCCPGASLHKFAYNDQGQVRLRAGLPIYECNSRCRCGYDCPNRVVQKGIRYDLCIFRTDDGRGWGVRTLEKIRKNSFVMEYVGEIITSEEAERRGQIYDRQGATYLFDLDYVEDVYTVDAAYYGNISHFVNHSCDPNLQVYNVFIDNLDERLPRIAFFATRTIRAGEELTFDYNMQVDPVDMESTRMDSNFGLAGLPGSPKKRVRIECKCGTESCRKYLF

[3] = target: Mitogen-activated protein kinase 8 (Homo sapiens, UniProt P45983); test: Selectivity interaction (KinomeScan (DiscoverX)) EUB0001079a MAPK8; settings: at 1 µM
Chain of Mitogen-activated protein kinase 8 (P45983 whole entry): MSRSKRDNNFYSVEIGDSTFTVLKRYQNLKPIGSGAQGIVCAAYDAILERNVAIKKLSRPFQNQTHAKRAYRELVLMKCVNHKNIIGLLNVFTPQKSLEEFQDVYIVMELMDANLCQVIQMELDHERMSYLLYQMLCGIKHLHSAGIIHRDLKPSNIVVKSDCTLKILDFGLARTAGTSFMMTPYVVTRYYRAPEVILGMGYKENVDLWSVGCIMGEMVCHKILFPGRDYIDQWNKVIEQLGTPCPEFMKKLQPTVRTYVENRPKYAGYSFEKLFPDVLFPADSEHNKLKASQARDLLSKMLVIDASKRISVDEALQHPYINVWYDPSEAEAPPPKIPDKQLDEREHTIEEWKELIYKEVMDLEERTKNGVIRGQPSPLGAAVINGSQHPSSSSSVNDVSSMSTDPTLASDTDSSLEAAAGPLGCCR

[4] = target: T2, Tyrosine-protein kinase Mer (Homo sapiens) (UniProt Q12866); test: Selectivity interaction (Kinase panel (DSF assay)) EUB0001558a MERTK
T2 sequence (whole entry): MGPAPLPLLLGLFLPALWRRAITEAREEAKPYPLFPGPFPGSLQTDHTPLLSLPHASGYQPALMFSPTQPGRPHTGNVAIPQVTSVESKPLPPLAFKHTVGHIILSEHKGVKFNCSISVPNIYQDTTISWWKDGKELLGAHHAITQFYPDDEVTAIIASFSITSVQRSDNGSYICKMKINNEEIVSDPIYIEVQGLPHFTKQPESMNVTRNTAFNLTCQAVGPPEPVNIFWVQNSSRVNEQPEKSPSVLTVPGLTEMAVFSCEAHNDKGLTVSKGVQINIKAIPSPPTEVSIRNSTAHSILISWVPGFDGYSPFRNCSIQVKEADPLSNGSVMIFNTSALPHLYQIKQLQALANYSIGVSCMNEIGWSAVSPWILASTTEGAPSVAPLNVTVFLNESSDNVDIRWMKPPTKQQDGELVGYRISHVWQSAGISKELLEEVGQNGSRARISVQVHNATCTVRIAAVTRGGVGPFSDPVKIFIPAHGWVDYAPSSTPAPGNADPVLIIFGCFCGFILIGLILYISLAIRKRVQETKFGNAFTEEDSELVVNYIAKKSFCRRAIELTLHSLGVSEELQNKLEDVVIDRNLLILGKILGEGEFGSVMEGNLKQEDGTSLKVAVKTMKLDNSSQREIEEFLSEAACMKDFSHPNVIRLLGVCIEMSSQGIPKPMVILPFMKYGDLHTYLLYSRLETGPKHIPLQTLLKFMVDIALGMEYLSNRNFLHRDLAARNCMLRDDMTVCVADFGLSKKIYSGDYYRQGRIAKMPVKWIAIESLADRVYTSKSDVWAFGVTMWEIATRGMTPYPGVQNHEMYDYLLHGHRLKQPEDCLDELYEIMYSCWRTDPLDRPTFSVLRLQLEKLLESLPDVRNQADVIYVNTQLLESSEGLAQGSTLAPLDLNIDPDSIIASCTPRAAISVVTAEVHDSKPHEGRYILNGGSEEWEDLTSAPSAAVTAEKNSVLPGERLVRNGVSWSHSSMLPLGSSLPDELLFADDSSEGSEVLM

[5] = target: Tyrosine-protein kinase Yes (Homo sapiens) (UniProt P07947); test: Selectivity interaction (ActivX KiNativ screen (kinase selectivity in THP-1 cell lysates)) EUB0000639a YES1; assay type: subcellular; settings: lysate
Chain of Tyrosine-protein kinase Yes (Homo sapiens) (P07947 2-543 limits assumed): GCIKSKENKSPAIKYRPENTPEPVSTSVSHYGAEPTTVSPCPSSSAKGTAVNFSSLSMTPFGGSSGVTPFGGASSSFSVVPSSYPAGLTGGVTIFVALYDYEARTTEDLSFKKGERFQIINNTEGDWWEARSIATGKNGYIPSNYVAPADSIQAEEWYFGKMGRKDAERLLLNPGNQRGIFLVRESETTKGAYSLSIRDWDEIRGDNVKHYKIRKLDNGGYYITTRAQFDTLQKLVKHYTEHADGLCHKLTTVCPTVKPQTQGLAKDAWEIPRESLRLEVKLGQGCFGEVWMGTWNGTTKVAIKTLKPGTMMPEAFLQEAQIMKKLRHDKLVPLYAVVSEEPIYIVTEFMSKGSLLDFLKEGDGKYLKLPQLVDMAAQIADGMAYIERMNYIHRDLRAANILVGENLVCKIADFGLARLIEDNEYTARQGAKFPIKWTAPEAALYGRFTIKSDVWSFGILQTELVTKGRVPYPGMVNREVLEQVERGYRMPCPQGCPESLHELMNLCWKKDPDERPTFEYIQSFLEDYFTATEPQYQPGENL

[6] = target: Ribosomal protein S6 kinase alpha-2 (Homo sapiens) (UniProt Q15349); test: Selectivity interaction (KinomeScan (DiscoverX)) EUB0000045b RPS6KA2
Chain of Ribosomal protein S6 kinase alpha-2 (Homo sapiens) (Q15349 whole entry): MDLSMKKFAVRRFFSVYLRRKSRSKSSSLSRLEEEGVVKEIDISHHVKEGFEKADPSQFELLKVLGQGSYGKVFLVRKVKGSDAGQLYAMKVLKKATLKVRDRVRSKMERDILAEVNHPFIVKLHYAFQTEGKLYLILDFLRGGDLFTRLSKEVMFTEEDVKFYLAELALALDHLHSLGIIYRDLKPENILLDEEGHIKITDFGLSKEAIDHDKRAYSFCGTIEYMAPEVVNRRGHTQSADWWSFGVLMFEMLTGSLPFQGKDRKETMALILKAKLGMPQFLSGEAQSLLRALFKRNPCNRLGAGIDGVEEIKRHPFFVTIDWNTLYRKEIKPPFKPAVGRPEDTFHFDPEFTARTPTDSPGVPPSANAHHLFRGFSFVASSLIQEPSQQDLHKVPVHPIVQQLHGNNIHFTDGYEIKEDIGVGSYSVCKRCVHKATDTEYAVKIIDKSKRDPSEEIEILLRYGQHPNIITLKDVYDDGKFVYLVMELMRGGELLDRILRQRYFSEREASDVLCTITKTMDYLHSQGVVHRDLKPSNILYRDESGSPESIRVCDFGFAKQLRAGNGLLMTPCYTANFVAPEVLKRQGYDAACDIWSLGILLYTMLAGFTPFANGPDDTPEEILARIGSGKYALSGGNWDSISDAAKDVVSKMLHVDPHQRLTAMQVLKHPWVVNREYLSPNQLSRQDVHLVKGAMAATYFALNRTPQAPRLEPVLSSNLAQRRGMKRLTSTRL

[7] = target: Ribosomal protein S6 kinase alpha-1 (Homo sapiens, UniProt Q15418); test: Selectivity interaction (KinomeScan (DiscoverX)) EUB0000045b RPS6KA1; settings: at 1 µM
Chain of Ribosomal protein S6 kinase alpha-1 (Q15418 whole entry): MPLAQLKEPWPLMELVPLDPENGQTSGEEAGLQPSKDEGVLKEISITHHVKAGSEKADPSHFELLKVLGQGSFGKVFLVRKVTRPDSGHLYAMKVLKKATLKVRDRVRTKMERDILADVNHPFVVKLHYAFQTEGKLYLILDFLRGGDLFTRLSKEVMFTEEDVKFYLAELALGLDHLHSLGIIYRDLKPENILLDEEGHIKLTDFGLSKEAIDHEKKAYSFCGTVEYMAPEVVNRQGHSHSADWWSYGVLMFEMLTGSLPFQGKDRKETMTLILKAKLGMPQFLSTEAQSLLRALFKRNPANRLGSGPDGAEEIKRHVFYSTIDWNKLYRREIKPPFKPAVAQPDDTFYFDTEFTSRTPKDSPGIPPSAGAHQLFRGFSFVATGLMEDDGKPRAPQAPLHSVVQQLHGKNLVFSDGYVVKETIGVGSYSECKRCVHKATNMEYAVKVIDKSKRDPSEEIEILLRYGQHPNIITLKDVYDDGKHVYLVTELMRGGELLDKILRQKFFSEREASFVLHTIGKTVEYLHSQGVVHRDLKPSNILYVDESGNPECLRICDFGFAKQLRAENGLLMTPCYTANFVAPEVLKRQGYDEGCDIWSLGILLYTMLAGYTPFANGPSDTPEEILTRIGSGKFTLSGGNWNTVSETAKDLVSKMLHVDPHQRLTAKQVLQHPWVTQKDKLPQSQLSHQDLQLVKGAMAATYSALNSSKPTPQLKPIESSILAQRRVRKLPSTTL

[8] = target: Tyrosine-protein kinase JAK2 (Homo sapiens, UniProt O60674); test: Selectivity interaction (ActivX KiNativ screen (ex vivo kinase selectivity in human PBMCs)) EUB0001619a JAK2; assay type: cell-based; settings: PBMC, at 1 µM
[9] = target: T3, Serine/threonine-protein kinase TNNI3K (Homo sapiens) (UniProt Q59H18); test: Selectivity interaction (KinomeScan (DiscoverX)) EUB0000607a TNNI3K; settings: at 10 µM
T3 sequence (whole entry): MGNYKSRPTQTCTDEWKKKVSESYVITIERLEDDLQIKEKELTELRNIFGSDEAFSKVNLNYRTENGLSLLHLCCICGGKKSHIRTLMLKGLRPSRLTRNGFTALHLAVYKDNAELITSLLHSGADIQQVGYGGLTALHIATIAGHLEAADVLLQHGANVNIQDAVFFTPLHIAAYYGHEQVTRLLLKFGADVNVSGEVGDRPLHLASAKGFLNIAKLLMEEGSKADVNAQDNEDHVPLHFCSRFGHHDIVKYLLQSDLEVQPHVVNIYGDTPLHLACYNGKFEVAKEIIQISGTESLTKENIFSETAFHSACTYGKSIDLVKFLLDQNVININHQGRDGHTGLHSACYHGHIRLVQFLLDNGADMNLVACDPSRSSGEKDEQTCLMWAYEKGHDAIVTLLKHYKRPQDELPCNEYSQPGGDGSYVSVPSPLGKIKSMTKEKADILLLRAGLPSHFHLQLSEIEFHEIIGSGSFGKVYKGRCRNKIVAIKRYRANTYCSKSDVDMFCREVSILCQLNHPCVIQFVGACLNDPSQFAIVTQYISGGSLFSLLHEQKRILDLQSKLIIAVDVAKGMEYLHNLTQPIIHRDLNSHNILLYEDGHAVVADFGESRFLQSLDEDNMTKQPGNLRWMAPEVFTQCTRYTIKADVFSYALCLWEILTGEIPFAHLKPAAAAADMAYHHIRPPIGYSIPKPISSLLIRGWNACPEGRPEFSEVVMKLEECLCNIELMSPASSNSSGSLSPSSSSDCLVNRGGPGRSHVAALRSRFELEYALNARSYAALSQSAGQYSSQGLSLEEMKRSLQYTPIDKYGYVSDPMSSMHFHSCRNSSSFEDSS

[10] = target: Ribosomal protein S6 kinase alpha-4 (Homo sapiens) (UniProt O75676); test: Selectivity interaction (ProQinase) EUB0000171b RPS6KA4
Chain of Ribosomal protein S6 kinase alpha-4 (Homo sapiens) (O75676 whole entry, looked up): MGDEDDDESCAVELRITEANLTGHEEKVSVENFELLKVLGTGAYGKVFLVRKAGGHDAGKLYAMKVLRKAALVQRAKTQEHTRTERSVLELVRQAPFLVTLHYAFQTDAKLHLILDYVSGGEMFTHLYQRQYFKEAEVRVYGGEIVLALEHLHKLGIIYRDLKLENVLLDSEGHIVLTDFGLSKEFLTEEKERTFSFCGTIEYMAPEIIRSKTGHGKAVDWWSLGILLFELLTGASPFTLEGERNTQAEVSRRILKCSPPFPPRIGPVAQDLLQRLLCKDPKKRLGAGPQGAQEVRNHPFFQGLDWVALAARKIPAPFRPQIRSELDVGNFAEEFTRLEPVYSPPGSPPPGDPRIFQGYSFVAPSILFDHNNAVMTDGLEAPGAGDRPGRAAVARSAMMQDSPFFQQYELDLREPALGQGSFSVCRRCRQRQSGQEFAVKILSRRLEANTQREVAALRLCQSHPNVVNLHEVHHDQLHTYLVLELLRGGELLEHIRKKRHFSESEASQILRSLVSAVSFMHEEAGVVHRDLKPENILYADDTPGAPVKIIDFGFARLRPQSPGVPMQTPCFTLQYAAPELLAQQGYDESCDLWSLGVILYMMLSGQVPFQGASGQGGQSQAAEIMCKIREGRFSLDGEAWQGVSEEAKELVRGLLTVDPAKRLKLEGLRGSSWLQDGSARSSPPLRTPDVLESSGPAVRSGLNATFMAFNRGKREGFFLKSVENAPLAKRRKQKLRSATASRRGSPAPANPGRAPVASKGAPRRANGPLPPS

[11] = system: Epidermal growth factor receptor (Homo sapiens), P00533 [UNDEFINED MUTATION]; test: Selectivity interaction (ProQinase) EUB0000171b EGFR; settings: at 1 µM
Chain of Epidermal growth factor receptor (Homo sapiens), P00533 [UNDEFINED MUTATION] (P00533 whole entry, looked up, change not shown): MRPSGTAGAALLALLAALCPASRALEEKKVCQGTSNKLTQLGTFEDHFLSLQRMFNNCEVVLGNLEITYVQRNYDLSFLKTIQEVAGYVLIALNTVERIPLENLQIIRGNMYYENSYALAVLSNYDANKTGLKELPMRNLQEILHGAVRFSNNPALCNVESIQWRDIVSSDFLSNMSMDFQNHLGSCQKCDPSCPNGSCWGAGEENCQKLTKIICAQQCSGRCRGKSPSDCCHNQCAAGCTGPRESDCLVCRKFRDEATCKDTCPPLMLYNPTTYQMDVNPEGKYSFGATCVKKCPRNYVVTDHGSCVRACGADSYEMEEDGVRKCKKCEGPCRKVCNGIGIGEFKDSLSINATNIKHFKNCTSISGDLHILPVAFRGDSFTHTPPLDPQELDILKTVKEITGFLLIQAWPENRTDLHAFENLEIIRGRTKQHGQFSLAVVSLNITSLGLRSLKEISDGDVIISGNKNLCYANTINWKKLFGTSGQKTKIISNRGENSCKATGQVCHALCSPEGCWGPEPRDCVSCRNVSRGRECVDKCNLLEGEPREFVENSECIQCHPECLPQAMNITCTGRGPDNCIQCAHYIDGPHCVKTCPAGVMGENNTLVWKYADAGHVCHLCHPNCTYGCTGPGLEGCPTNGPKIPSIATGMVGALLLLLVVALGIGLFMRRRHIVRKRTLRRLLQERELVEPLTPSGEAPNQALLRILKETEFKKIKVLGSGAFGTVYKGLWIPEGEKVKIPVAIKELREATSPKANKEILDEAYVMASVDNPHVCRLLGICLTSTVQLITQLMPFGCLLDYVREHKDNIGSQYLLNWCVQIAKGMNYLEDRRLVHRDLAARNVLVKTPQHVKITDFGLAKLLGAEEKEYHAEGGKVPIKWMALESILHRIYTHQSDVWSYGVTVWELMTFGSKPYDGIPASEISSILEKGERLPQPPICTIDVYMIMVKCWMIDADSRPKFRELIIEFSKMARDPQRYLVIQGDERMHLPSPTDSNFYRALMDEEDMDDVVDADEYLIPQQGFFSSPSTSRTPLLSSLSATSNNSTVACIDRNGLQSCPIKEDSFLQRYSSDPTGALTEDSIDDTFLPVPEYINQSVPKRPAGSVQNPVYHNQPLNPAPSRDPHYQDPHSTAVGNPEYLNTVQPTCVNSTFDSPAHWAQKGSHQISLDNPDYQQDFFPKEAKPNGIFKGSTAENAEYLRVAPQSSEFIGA

`O=C(NOC[C@H](O)CO)c1ccc(F)c(F)c1Nc1ccc(I)cc1F` was tested, and the % of control [1] was 86%.
`CNCCN1CCC(c2cc(CN(C)C(=O)c3cccc(Oc4ccccc4)c3)ccn2)CC1` was tested, and the % activity [2] was over 90%.
For `Nc1cnc(N2CCc3cc(S(=O)(=O)Nc4c(F)cc(Cl)cc4F)cc(N4CCCC4=O)c32)nc1` [TP-020n], the % of control [3] was 78%.
Work on `CC(C)(O)[C@H](F)CN1Cc2cc(NC(=O)c3cnn4cccnc34)c(N3CCOCC3)cc2C1=O` yielded a dTM [4] of 1.7 K.
In the case of `CC[C@@H]1[C@H](F)C(=O)N[C@@H]1COc1nccc2cc(C(N)=O)c(OC)cc12` [ZIMLOVISERTIB], the % of inhibition ([5]; at 0.01 µM) is reported as -8.5%, the % of inhibition ([5]; at 0.04 µM) is reported as -0.2% and the % of inhibition ([5]; at 0.2 µM) is reported as 0.7%. The % of inhibition ([5]; at 1 µM) was -11% and the % of inhibition ([5]; at 5 µM) was -13.3%.
With `C=CC(=O)Nc1cc(-n2c(=O)ccc3cnc4ccc(-c5ccc(NS(C)(=O)=O)cc5)cc4c32)ccc1C` the % of control ([6]; at 1 µM) was 100%, the % of control ([6]; at 10 µM) was 68% and the % of control [7] was 91%.
Work on `N#Cc1cccc(-c2c[nH]c3ncnc(N4CCOCC4)c23)c1` yielded a % of inhibition [8] of 17%.
`CNC(=O)Nc1ccc(-c2nc(N3CC4CCC(C3)O4)c3cnn(C4CCC5(CC4)OCCO5)c3n2)cc1` showed a % of control [9] of 59%.
`C=CC(=O)Nc1cccc(C(=O)Nc2ccc(Nc3cc(-c4[nH]c(SC)nc4C)ccn3)cc2)c1` showed a % of control ([10]; at 1 µM) of 97%, a % of control ([10]; at 5 µM) of 94% and a % of control [11] of 101%.
